Experiment [1] concerns the target T1, Tyrosine-protein kinase HCK (Homo sapiens, UniProt P08631). As to the kind of experiment: Inhibition of HCK (75 to 526 residues) (unknown origin) expressed in Sf9 insect cells after 120 mins.
Experiment [2] deals with T1, Tyrosine-protein kinase HCK. As to the kind of experiment: biochemical.

T1 sequence (P08631 whole entry, the tested form may be a part): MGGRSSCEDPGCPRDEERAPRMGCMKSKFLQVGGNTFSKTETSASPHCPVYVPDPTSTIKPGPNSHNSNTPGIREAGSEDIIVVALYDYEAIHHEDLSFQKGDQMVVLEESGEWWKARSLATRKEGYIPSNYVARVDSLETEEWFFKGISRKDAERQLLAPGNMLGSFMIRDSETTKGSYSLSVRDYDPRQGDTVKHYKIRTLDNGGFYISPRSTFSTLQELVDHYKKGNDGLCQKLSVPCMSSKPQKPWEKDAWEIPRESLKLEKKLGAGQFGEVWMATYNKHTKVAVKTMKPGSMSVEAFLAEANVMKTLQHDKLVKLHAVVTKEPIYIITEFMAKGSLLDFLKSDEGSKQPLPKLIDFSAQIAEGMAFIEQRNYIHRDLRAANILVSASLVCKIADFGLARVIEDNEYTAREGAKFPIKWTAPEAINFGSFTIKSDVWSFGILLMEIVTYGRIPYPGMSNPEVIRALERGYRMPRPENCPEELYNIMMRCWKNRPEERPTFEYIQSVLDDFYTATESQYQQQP

As for `CC(C)C[C@H](N[C@H]1CC[C@H](n2cc(-c3ccc(Oc4ccccc4)cc3)c3c(N)ncnc32)CC1)C(N)=O`, in experiment [1] (read-out: IC50), the IC50 was 210 nM.

On to `CCOC(=O)[C@H](CC(C)C)N[C@H]1CC[C@H](n2cc(-c3ccc(Oc4ccccc4)cc3)c3c(N)ncnc32)CC1`, for which, in experiment [1] (read-out: IC50), the IC50 turned out to be 1320 nM. The same measure, in the same setting: then `CNC(=O)[C@H](CC(C)C)N[C@H]1CC[C@H](n2cc(-c3ccc(Oc4ccccc4)cc3)c3c(N)ncnc32)CC1`, with 111 nM. Same read-out and setting: then `CC(C)C[C@H](N[C@H]1CC[C@H](n2cc(-c3ccc(Oc4ccccc4)cc3)c3c(N)ncnc32)CC1)C(=O)O`, with 11 nM; and `CC(C)C[C@H](N[C@H]1CC[C@H](n2cc(-c3ccc(Oc4ccccc4)cc3)c3c(N)ncnc32)CC1)C(=O)N(C)C`, with 686 nM. Consider `CN1CCN([C@H]2CC[C@H](n3cc(-c4ccc(Oc5ccccc5)cc4)c4c(N)ncnc43)CC2)CC1`, for which the results for the IC50 in experiment [2] and in experiment [1] (read-out: pIC50 (converted)) were 0.43 nM and 0.427 nM, respectively.

The record behind these values is ChEMBL document CHEMBL4052720, “Activity cliff for 7-substituted pyrrolo-pyrimidine inhibitors of HCK explained in terms of predicted basicity of the amine nitrogen” (Bioorg Med Chem, 2017).
